40 compounds from patent publication US9193722B2, “Tri-cyclic pyrazolopyridine kinase inhibitors” (Vertex Pharmaceuticals Incorporated, priority 2008, dated 2015) can be followed below.

Like-named read-outs stand apart in the source and are kept apart here.

Common to all, as to format: biochemical
The target in one assay is PKC theta kinase (Homo sapiens, UniProt Q04759). The assay can be described thus: PKC theta kinase inhibition, coupled-enzyme (NADH absorbance) assay, Ki. To be noted: 240 μM ATP, 18 nM PKC theta kinase, 30° C. As for the experimental part: An assay buffer solution was prepared which consisted of 100 mM HEPES (pH 7.5), 10 mM MgCl2, 25 mM NaCl, 0.1 mM EDTA and 0.01% Brij. […] To 60 μL of this enzyme buffer, in a 384 well plate, was added 2 μL of VRT stock solution in DMSO. The mixture was allowed to equilibrate for 10 mins at 30° C. […] Ki values were calculated from initial rate data by non-linear regression using the Prism software package (Prism 4.0a, Graphpad Software, San Diego, Calif.).
PKC theta kinase, sequence (Q04759 whole entry): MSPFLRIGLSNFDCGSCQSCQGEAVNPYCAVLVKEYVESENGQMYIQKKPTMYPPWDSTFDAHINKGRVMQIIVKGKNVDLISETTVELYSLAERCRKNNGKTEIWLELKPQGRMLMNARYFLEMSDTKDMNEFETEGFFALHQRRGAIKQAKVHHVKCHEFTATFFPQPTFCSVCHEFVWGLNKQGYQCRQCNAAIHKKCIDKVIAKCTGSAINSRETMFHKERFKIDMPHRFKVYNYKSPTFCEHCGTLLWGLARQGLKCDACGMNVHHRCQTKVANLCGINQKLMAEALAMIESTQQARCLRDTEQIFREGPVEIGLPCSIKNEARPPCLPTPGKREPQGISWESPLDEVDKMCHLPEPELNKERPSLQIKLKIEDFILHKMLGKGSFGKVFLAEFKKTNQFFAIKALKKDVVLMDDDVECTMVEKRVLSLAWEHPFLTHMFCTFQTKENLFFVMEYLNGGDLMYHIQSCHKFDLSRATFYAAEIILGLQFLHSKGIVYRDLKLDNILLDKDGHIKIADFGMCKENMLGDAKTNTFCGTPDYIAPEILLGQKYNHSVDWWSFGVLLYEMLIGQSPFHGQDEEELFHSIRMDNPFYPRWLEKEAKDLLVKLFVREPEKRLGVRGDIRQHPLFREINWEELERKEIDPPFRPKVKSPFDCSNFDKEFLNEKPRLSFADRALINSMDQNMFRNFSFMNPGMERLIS

The target of another assay is PKC alpha kinase (Homo sapiens, UniProt P17252). The experiment in a line: PKC alpha kinase inhibition, coupled-enzyme (NADH absorbance) assay, Ki. To be noted: 130 μM ATP, 4.5 nM PKC alpha kinase, 30° C. As for the experimental part:
(§1) An assay buffer solution was prepared which consisted of 100 mM HEPES (pH 7.5), 10 mM MgCl2, 25 mM NaCl, 0.1 mM EDTA, 100 μM CaCl2 and 0.01% Brij. […] To 16 μL of this enzyme buffer, in a 384 well plate, was added 1 μL of VRT stock solution in DMSO. The mixture was allowed to equilibrate for 10 mins at 30° C. The enzyme reaction was initiated by the addition of 16 μL stock ATP solution prepared in assay buffer to a final assay concentration of 130 μM. Initial rate data was determined from the rate of change of absorbance at 340 nm (corresponding to stoichiometric consumption of NADH) using a Molecular Devices Spectramax plate reader (Sunnyvale, Calif.) over 15 mins at 30° C. […] Ki values were calculated from initial rate data by non-linear regression using the Prism software package (Prism 4.0a, Graphpad Software, San Diego, Calif.).

The target of another assay is PKC delta kinase (Homo sapiens, UniProt Q05655). The experiment in a line: PKC delta kinase inhibition, coupled-enzyme (NADH absorbance) assay, Ki. To be noted: 150 μM ATP, 46 nM PKC delta kinase, 30° C. As for the experimental part: as §1, with “EDTA” for “EDTA, 100 μM CaCl2”, “150” for “130”
PKC delta kinase, sequence (Q05655 whole entry): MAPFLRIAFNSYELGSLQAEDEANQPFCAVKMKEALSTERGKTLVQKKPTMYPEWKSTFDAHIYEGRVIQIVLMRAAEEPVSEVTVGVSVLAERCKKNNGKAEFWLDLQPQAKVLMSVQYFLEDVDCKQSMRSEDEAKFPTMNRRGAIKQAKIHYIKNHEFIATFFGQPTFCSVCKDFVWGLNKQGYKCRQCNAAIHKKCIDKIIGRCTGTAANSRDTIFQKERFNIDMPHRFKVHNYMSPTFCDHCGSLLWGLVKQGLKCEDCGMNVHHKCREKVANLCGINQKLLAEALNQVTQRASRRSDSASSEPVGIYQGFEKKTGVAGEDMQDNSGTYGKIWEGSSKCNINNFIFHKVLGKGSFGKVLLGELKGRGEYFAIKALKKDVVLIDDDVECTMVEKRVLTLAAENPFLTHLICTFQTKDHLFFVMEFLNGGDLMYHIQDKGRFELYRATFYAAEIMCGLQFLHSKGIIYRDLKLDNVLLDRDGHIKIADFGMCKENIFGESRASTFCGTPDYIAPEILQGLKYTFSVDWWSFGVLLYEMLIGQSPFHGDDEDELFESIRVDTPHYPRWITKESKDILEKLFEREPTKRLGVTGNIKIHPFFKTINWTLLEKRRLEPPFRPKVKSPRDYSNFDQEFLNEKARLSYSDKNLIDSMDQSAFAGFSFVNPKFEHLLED

For `C=C(F)c1cc(-c2n[nH]c3ncccc23)nc(N2CCC(N)CC2)c1` [Compound 106], the Ki at PKC theta kinase is less than 500 nM; on PKC alpha kinase, greater than 1250 nM; on PKC delta kinase (read-out: Ki PKC delta), greater than 1250 nM.
Consider `C[C@H]1CN(c2ccc(C(F)(F)F)c(-c3n[nH]c4ncccc34)n2)CCN1` [Compound 116], for which the results for the Ki on PKC theta kinase, at PKC alpha kinase and at PKC delta kinase (read-out: Ki PKC delta) were less than 500 nM, greater than 1250 nM and less than 2800 nM, respectively.
The matching figures for `CC(C)CC1(CN)CCN(c2ccc(F)c(-c3n[nH]c4ncccc34)n2)CC1` [Compound 467]: less than 500 nM, greater than 1250 nM and greater than 1250 nM.
In the same order, the values of `CC(C)C[C@H]1CN(c2ccc(Cl)c(-c3n[nH]c4ncccc34)n2)CC[C@H]1N` [Compound 149] are less than 50 nM, less than 500 nM and less than 500 nM.
Consider `Fc1cccc(C2CN(c3ccc(C(F)(F)F)c(-c4n[nH]c5ncccc45)n3)CCN2)c1` (centres unmarked) [Compound 115], for which the values for the Ki at PKC theta kinase, at PKC alpha kinase and on PKC delta kinase (read-out: Ki PKC delta) were less than 50 nM, less than 2800 nM and less than 2800 nM, respectively.
Regarding `NCC1CCCN(c2ccc(F)c(-c3n[nH]c4ncccc34)n2)C1` (centres unmarked) [Compound 327], the Ki at PKC theta kinase was less than 500 nM; on PKC alpha kinase, greater than 1250 nM; on PKC delta kinase (read-out: Ki PKC delta) it was greater than 1250 nM.
`CCCC1CN(c2ccc(Cl)c(-c3n[nH]c4ncccc34)n2)CCN1` (centres unmarked) [Compound 123]: the Ki on PKC theta kinase was less than 50 nM; on PKC alpha kinase, greater than 1250 nM; at PKC delta kinase (read-out: Ki PKC delta), less than 2800 nM.
With `FC(F)(F)c1ccc(N2CCNC(c3cccc(Br)c3)C2)nc1-c1n[nH]c2ncccc12` (centres unmarked) [Compound 172], the Ki at PKC theta kinase is less than 500 nM; on PKC alpha kinase it was less than 2800 nM; on PKC delta kinase (read-out: Ki PKC delta), greater than 1250 nM.
The matching figures for `CCC[C@H]1CN(c2ccc(F)c(-c3n[nH]c4ncccc34)n2)C[C@H]1N` [Compound 338]: less than 500 nM, greater than 1250 nM and greater than 1250 nM.
The matching figures for `CN1CCN(c2cccc(-c3n[nH]c4ncccc34)n2)CC1` [Compound 26]: less than 500 nM, greater than 1250 nM and greater than 2000 nM.
For `NCC1CCN(c2ccc(C(F)(F)F)c(-c3n[nH]c4ncccc34)n2)CC1` [Compound 127], the Ki on PKC theta kinase was greater than 700 nM; on PKC alpha kinase, greater than 1250 nM; at PKC delta kinase (read-out: Ki PKC delta), greater than 1250 nM.
Take `CNC1CCN(c2cccc(-c3n[nH]c4ncccc34)n2)C1` (centres unmarked) [Compound 24]: the Ki at PKC theta kinase was less than 2800 nM; on PKC alpha kinase, greater than 1250 nM; on PKC delta kinase (read-out: Ki PKC delta) it was greater than 2000 nM.
In the same order, the values of `CCCC1CN(c2cccc(-c3n[nH]c4ncccc34)n2)CCN1` (centres unmarked) [Compound 59] are less than 50 nM, less than 2800 nM and less than 500 nM.
For the compound `NCC1CN(c2ccc(C(F)(F)F)c(-c3n[nH]c4ncccc34)n2)CCO1` (centres unmarked) [Compound 336], the Ki on PKC theta kinase was greater than 700 nM; on PKC alpha kinase it was greater than 1250 nM; on PKC delta kinase (read-out: Ki PKC delta), greater than 1250 nM.
As for `CC(C)CC1CN(c2ccc(F)c(-c3n[nH]c4ncccc34)n2)CCC1CN` (centres unmarked) [Compound 386], the Ki on PKC theta kinase was less than 50 nM; at PKC alpha kinase, less than 2800 nM; on PKC delta kinase (read-out: Ki PKC delta), less than 500 nM.
The matching figures for `CC(O)(C1CC1)C1CN(c2ccc(F)c(-c3n[nH]c4ncccc34)n2)CCN1` (centres unmarked) [Compound 247]: less than 50 nM, less than 2800 nM and less than 500 nM.
Regarding `CC(C)C[C@H]1CN(c2cc(C#N)cc(-c3n[nH]c4ncccc34)n2)CCN1` [Compound 442], the Ki at PKC theta kinase is less than 500 nM; on PKC alpha kinase, greater than 1250 nM; on PKC delta kinase (read-out: Ki PKC delta), less than 500 nM.
Take `NC1CCN(c2cccc(-c3n[nH]c4ncccc34)n2)CC1` [Compound 61]: the Ki is less than 500 nM on PKC theta kinase, greater than 1250 nM at PKC alpha kinase and less than 2800 nM at PKC delta kinase (read-out: Ki PKC delta).
The matching figures for `C1=C(c2cccc(-c3n[nH]c4ncccc34)n2)CCNC1` [Compound 157]: less than 500 nM, greater than 1250 nM and greater than 1250 nM.
In the same order, the values of `COC(C)(C)C1CN(c2cccc(-c3n[nH]c4ncccc34)n2)CCN1` (centres unmarked) [Compound 181] are less than 50 nM, greater than 1250 nM and less than 500 nM.
The matching figures for `O=C1CN(c2ccc(F)c(-c3n[nH]c4ncccc34)n2)CCN1` [Compound 255]: greater than 700 nM, greater than 1250 nM and greater than 1250 nM.
Consider `CC1(N)CCCN(c2ccc(C(F)(F)F)c(-c3n[nH]c4ncccc34)n2)C1` (centres unmarked) [Compound 319], for which the Ki on PKC theta kinase is greater than 700 nM; at PKC alpha kinase, greater than 1250 nM; at PKC delta kinase (read-out: Ki PKC delta) it was greater than 1250 nM.
With `CC(C)C[C@H]1CN(c2ccc(C(F)(F)F)c(-c3n[nH]c4ncccc34)n2)CCN1` [Compound 4, (S)-3-(6-(3-isobutylpiperazin-1-yl)-3-(trifluoromethyl)pyridin-2-yl)-1H-pyrazolo[3,4-b]pyridine], the Ki on PKC theta kinase was less than 50 nM; at PKC alpha kinase it was greater than 1250 nM; on PKC delta kinase (read-out: Ki PKC delta), greater than 1250 nM.
Consider `Cc1ccc(-c2n[nH]c3ncccc23)nc1N1CCN[C@@H](CC(C)C)C1` [Compound 40], for which the Ki was less than 500 nM on PKC theta kinase, greater than 1250 nM on PKC alpha kinase and less than 2800 nM on PKC delta kinase (read-out: Ki PKC delta).
On to `CNC1CCN(c2ccc(F)c(-c3n[nH]c4ncccc34)n2)CC1` [Compound 369], for which the Ki is less than 500 nM at PKC theta kinase, greater than 1250 nM at PKC alpha kinase and greater than 1250 nM on PKC delta kinase (read-out: Ki PKC delta).
In the case of `CC(C)(F)C1CN(c2cccc(-c3n[nH]c4ncccc34)n2)CCN1` (centres unmarked) [Compound 148], the Ki at PKC theta kinase was less than 50 nM; on PKC alpha kinase, greater than 1250 nM; on PKC delta kinase (read-out: Ki PKC delta), less than 500 nM.
Turning to `CC1(C)CN(c2cccc(-c3n[nH]c4ncccc34)n2)CCN1` [Compound 79], the Ki is less than 50 nM at PKC theta kinase, greater than 1250 nM on PKC alpha kinase and less than 500 nM on PKC delta kinase (read-out: Ki PKC delta).
On to `Cc1cc(-c2n[nH]c3ncccc23)nc(N2CCN[C@@H](CC(C)C)C2)c1` [Compound 56], for which the Ki is less than 500 nM at PKC theta kinase, greater than 1250 nM on PKC alpha kinase and less than 2800 nM on PKC delta kinase (read-out: Ki PKC delta).
Consider `N#CCCC1CN(c2ccc(C(F)(F)F)c(-c3n[nH]c4ncccc34)n2)CCC1O` (centres unmarked) [Compound 459], for which the Ki at PKC theta kinase is less than 2800 nM; on PKC alpha kinase, greater than 1250 nM; on PKC delta kinase (read-out: Ki PKC delta), greater than 1250 nM.
For the compound `CC(C)(F)C(C)(O)C1CN(c2ccc(F)c(-c3n[nH]c4ncccc34)n2)CCN1` (centres unmarked) [Compound 248], the Ki was less than 1 nM on PKC theta kinase, less than 2800 nM on PKC alpha kinase and less than 500 nM at PKC delta kinase (read-out: Ki PKC delta).
The matching figures for `CC(C)(F)CC1CN(c2ccc(F)c(-c3n[nH]c4ncccc34)n2)CCN1` (centres unmarked) [Compound 151]: less than 50 nM, greater than 1250 nM and less than 500 nM.
The matching figures for `C=C(C)CC1CN(c2ccc(C(F)(F)F)c(-c3n[nH]c4ncccc34)n2)CCN1` (centres unmarked) [Compound 103]: less than 50 nM, less than 2800 nM and less than 500 nM.
In the same order, the values of `CCCC1(CN)CN(c2ccc(C(F)(F)F)c(-c3n[nH]c4ncccc34)n2)CCO1` (centres unmarked) [Compound 404] are less than 500 nM, less than 2800 nM and less than 500 nM.
Consider `CC(C)C[C@H]1CN(c2cccc(-c3n[nH]c4ncccc34)n2)CC(F)(F)CN1` [Compound 225], for which the figures for the Ki at PKC theta kinase, at PKC alpha kinase and at PKC delta kinase (read-out: Ki PKC delta) were less than 500 nM, greater than 1250 nM and greater than 1250 nM, respectively.
Consider `Fc1ccc(N2CCNCC2)nc1-c1n[nH]c2ncccc12` [Compound 88], for which the Ki was less than 500 nM at PKC theta kinase, greater than 1250 nM at PKC alpha kinase and less than 2800 nM on PKC delta kinase (Ki PKC delta).
For `Fc1ccc(N2CCc3[nH]ncc3C2)nc1-c1n[nH]c2ncccc12` [Compound 298], the Ki was greater than 700 nM on PKC theta kinase, greater than 1250 nM on PKC alpha kinase and greater than 1250 nM at PKC delta kinase (read-out: Ki PKC delta).
As to `CCC(N)C1(C(F)(F)F)CCN(c2ccc(F)c(-c3n[nH]c4ncccc34)n2)C1` (centres unmarked) [Compound 449], the Ki at PKC theta kinase is greater than 700 nM; at PKC delta kinase (read-out: Ki PKC delta) it was greater than 1250 nM.
In the same order, the values of `CC(C)CC1(C)CN(c2ccc(C(F)(F)F)c(-c3n[nH]c4ncccc34)n2)CCC1N` (centres unmarked) [Compound 388] are less than 50 nM and less than 500 nM.
For `c1cc(-c2n[nH]c3ncccc23)nc(N2CCCNCC2)c1` [Compound 1], the Ki on PKC theta kinase is less than 50 nM; on PKC delta kinase (read-out: Ki PKC delta) it was less than 500 nM.
`CC(C)C(C)(O)C1CN(c2ccc(F)c(-c3n[nH]c4ncccc34)n2)CCN1C` (centres unmarked) [Compound 231]: the Ki at PKC theta kinase is less than 50 nM; on PKC delta kinase (read-out: Ki PKC delta) it was less than 500 nM.
